# Laboratory results taken from patent US9758492B2, “IDO inhibitors” (Bristol-Myers Squibb Company, priority 2013, dated 2017).
# pIC50: −log10 of the molar value.
# Molecular target: IDO (Homo sapiens, UniProt P14902)
# Test: LLE_IDO_ABS_DR (IDO assay)
# Conditions: not given
# Sequence of IDO (P14902 whole entry): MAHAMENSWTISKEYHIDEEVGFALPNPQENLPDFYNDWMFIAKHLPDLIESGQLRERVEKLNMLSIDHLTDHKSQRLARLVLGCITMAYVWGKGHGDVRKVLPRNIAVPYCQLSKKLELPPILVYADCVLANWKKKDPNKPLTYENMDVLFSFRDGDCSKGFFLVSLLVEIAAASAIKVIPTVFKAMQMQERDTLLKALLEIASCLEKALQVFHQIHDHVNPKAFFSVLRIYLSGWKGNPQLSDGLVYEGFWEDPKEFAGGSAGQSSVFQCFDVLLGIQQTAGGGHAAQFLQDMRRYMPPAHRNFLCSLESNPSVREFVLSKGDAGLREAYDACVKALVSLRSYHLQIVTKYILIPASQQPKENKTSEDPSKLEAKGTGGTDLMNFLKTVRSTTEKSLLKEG
row,Structure (SMILES),pIC50
1,"O=C(Nc1ccc(C2CC2)cc1)Nc1cc(-c2ccccc2-c2nnn[nH]2)ccc1N1CCC(F)(F)C1 [Example 347, 1-(4-cyclopropylphenyl)-3-(4-(3,3-difluoropyrrolidin-1-yl)-2′-(1H-tetrazol-5-yl)-[1,1′-biphenyl]-3-yl)urea]",5.28
2,"Cc1ccc(NC(=O)Nc2cc(-c3ccccc3-c3nnn[nH]3)ccc2N2CCCc3ccccc32)cn1 [Example 362, 1-(4-(3,4-Dihydroquinolin-1(2H)-yl)-2′-(1H-tetrazol-5-yl)-[1,1′-biphenyl]-3-yl)-3-(6-methylpyridin-3-yl)urea]",5.26
3,"O=C(Nc1ccc(OC(F)(F)F)cc1)Nc1cc(-c2ccccc2-c2nnn[nH]2)ccc1N1CCCc2ccccc21 [Example 363, 1-(4-(3,4-Dihydroquinolin-1(2H)-yl)-2′-(1H-tetrazol-5-yl)-[1,1′-biphenyl]-3-yl)-3-(4-(trifluoromethoxy)phenyl)urea]",6.05
4,"O=C(Nc1ccc(C(F)(F)F)cc1F)Nc1cc(-c2ccccc2-c2nnn[nH]2)ccc1N1CCCc2ccccc21 [Example 364, 1-(4-(3,4-Dihydroquinolin-1(2H)-yl)-2′-(1H-tetrazol-5-yl)-[1,1′-biphenyl]-3-yl)-3-(2-fluoro-4-(trifluoromethyl)phenyl)urea]",5.33
5,"O=C(Nc1ccc(F)nc1)Nc1cc(-c2ccccc2-c2nnn[nH]2)ccc1N1CCCc2ccccc21 [Example 365, 1-(4-(3,4-Dihydroquinolin-1(2H)-yl)-2′-(1H-tetrazol-5-yl)-[1,1′-biphenyl]-3-yl)-3-(6-fluoropyridin-3-yl)urea]",5.30
6,"Cc1cc(NC(=O)Nc2cc(-c3ccccc3-c3nnn[nH]3)ccc2N2CCCc3ccccc32)on1 [Example 366, 1-(4-(3,4-Dihydroquinolin-1(2H)-yl)-2′-(1H-tetrazol-5-yl)-[1,1′-biphenyl]-3-yl)-3-(3-methylisoxazol-5-yl)urea]",5.30
7,Cc1ccc(NC(=O)Nc2cc(-c3ccccc3-c3nnn[nH]3)ccc2N2CCC(c3ccc(F)cc3)C2)cn1 (centres unmarked) [Example 387],5.65
8,Cc1ccc(NC(=O)Nc2cc(-c3ccccc3-c3nnn[nH]3)ccc2N2CCC(c3nc(C)no3)C2)cn1 (centres unmarked) [Example 388],5.00
9,Cc1noc(C2CCN(c3ccc(-c4ccccc4-c4nnn[nH]4)cc3NC(=O)Nc3ccc(C(F)(F)F)cc3F)C2)n1 (centres unmarked) [Example 390],5.80
10,O=C(Nc1ccccc1F)Nc1cc(-c2cc(F)ccc2C(=O)O)ccc1N(Cc1ccc(Cl)cc1)C1CCCCC1 [Example 470],6.72
11,C=C(C)CN(CC(F)(F)F)c1ccc(-c2ccccc2C(=O)O)cc1NC(=O)Nc1ccc(C)cc1 [Example 471],7.40
12,Cc1ccc(NC(=O)Nc2cc(-c3ccccc3C(=O)O)ccc2N(CC(C)C)CC(F)(F)F)cc1 [Example 474],7.05
13,Cc1ccc(NC(=O)Nc2cc(-c3cc(F)ccc3C(=O)O)ccc2N(CC(C)C)CC(F)(F)F)cc1 [Example 476],6.85
14,CN(c1ccc(-c2cc(F)ccc2C(=O)O)cc1NC(=O)Nc1ccccc1F)c1ccccc1C(C)(C)C [Example 479],5.42
15,CN(c1ccc(-c2ccccc2C(=O)O)cc1NC(=O)Nc1ccccc1F)c1ccccc1C(C)(C)C [Example 480],5.74
16,"CC(C)CN(c1ccc(-c2ccccc2C(=O)O)cc1NC(=O)Nc1ccccc1F)C1CCC(F)(F)CC1 [Example 510, 4′-((4,4-Difluorocyclohexyl)(isobutyl)amino)-3′-(3-(2-fluorophenyl)ureido)-[1,1′-biphenyl]-2-carboxylic acid]",8.86
17,"CC(C)CN(c1ccc(-c2ccccc2C(=O)O)cc1NC(=O)Nc1ccc(OC(F)(F)F)cc1)C1CCC(F)(F)CC1 [Example 511, 4′-((4,4-Difluorocyclohexyl)(isobutyl)amino)-3′-(3-(4-(trifluoromethoxy)phenyl)ureido)-[1,1′-biphenyl]-2-carboxylic acid]",8.09
18,CC(C)CN(c1ccc(-c2ccccc2C(=O)O)cc1NC(=O)Nc1ccc(C(F)(F)F)cc1)C1CCC(F)(F)CC1 [Example 513],8.00

# Further lines, results first:
row,pIC50,Structure (SMILES)
1,6.77,"O=C(Nc1cc(-c2ccccc2-c2nnn[nH]2)ccc1N(CCC(F)(F)F)Cc1ccc(OC(F)(F)F)cc1)Nc1ccccc1C(F)(F)F [Example 342, 1-(2′-(1H-tetrazol-5-yl)-4-((4-(trifluoromethoxy)benzyl)(3,3,3-trifluoropropyl)amino)-[1,1′-biphenyl]-3-yl)-3-(2-(trifluoromethyl)phenyl)urea]"
2,6.64,"O=C(Nc1ccc(OC(F)(F)F)cc1)Nc1cc(-c2ccccc2-c2nnn[nH]2)ccc1N(CCC(F)(F)F)Cc1ccccn1 [Example 343, 1-(4-((pyridin-2-ylmethyl)(3,3,3-trifluoropropyl)amino)-2′-(1H-tetrazol-5-yl)-[1,1′-biphenyl]-3-yl)-3-(4-(trifluoromethoxy)phenyl)urea]"
3,6.09,"O=C(Nc1cc(-c2ccccc2-c2nnn[nH]2)ccc1N(CCC(F)(F)F)Cc1ccccn1)Nc1ccccc1C(F)(F)F [Example 345, 1-(4-((pyridin-2-ylmethyl)(3,3,3-trifluoropropyl)amino)-2′-(1H-tetrazol-5-yl)-[1,1′-biphenyl]-3-yl)-3-(2-(trifluoromethyl)phenyl)urea]"
4,6.60,"O=C(Nc1ccc(C2CC2)cc1)Nc1cc(-c2ccccc2-c2nnn[nH]2)ccc1N(CCC(F)(F)F)Cc1ccc(F)cc1 [Example 350, 1-(4-cyclopropylphenyl)-3-(4-((4-fluorobenzyl)(3,3,3-trifluoropropyl)amino)-2′-(1H-tetrazol-5-yl)-[1,1′-biphenyl]-3-yl)urea]"
5,6.46,"O=C(Nc1ccc(C2CC2)c(F)c1)Nc1cc(-c2ccccc2-c2nnn[nH]2)ccc1N(CCC(F)(F)F)Cc1ccc(Cl)cc1Cl [Example 351, 1-(4-cyclopropyl-3-fluorophenyl)-3-(4-((2,4-dichlorobenzyl)(3,3,3-trifluoropropyl)amino)-2′-(1H-tetrazol-5-yl)-[1,1′-biphenyl]-3-yl)urea]"
6,6.92,"O=C(Nc1ccc(C2CC2)c(F)c1)Nc1cc(-c2ccccc2-c2nnn[nH]2)ccc1N(CCC(F)(F)F)Cc1ccccn1 [Example 354, 1-(4-cyclopropyl-3-fluorophenyl)-3-(4-((pyridin-2-ylmethyl)(3,3,3-trifluoropropyl)amino)-2′-(1H-tetrazol-5-yl)-[1,1′-biphenyl]-3-yl)urea]"
7,5.16,Cc1ccc(NC(=O)Nc2cc(-c3cc(F)ccc3C(=O)O)ccc2N(CCC(C)(C)O)Cc2ccc(Cl)cc2)cc1 [Example 374]
8,5.32,Cc1ccc(NC(=O)Nc2cc(-c3ccccc3-c3nnn[nH]3)ccc2N(CCC(C)(C)O)Cc2ccc(Cl)cc2)cc1 [Example 375]
9,6.96,Cc1ccc(NC(=O)Nc2cc(-c3ccccc3-c3nnn[nH]3)ccc2N(CC(C)C)CC2CC(F)(F)C2)cc1 [Example 381]
10,7.40,Cc1ccc(NC(=O)Nc2cc(-c3ccccc3-c3nnn[nH]3)ccc2N2CCC(c3ccc(F)cc3)C2)cc1 (centres unmarked) [Example 386]
11,6.21,Cc1ccc(NC(=O)Nc2cc(-c3ccccc3-c3nnn[nH]3)ccc2N2CCC(c3nc(C)no3)C2)cc1 (centres unmarked) [Example 389]
12,7.10,Cc1ccc(NC(=O)Nc2cc(-c3ccccc3-c3nnn[nH]3)ccc2N(Cc2ccc(Cl)cc2)C2CCCCC2)cc1 [Example 468]
13,6.14,Cc1ccc(NC(=O)Nc2cc(-c3cc(F)ccc3C(=O)O)ccc2N(Cc2ccc(Cl)cc2)C2CCCCC2)cc1 [Example 469]
14,7.30,Cc1ccc(NC(=O)Nc2cc(-c3ccccc3-c3nnn[nH]3)ccc2N(CC(C)C)CC(F)(F)F)cc1 [Example 475]
15,5.74,Cc1ccc(NC(=O)Nc2cc(-c3ccccc3C(=O)O)ccc2N(C)c2ccccc2C(C)(C)C)cc1 [Example 481]
16,7.40,"Cc1ccc(NC(=O)Nc2cc(-c3ccccc3-c3nnn[nH]3)ccc2N(CCC(F)(F)F)Cc2ccc(Cl)cc2Cl)cc1 [Example 505, 1-(4-((2,4-Dichlorobenzyl)(3,3,3-trifluoropropyl)amino)-2′-(1H-tetrazol-5-yl)-[1,1′-biphenyl]-3-yl)-3-(p-tolyl)urea]"
17,7.40,"Cc1ccc(NC(=O)Nc2cc(-c3ccccc3-c3nnn[nH]3)ccc2N(CCC(F)(F)F)Cc2ccccn2)cc1 [Example 506, 1-(4-((pyridin-2-ylmethyl)(3,3,3-trifluoropropyl)amino)-2′-(1H-tetrazol-5-yl)-[1,1′-biphenyl]-3-yl)-3-(p-tolyl)urea]"

# Molecular target: T1, Human IDO1 (Homo sapiens, UniProt P14902)
# T1 construct: expressed in transfected cells; host or cells: HEK293
# Test: IDO Kynurenine Assay with Human IDO1/HEK293 Cells
# Assay type: cell-based
# Conditions: read-out: HEK human IDO-1 (IC50)
# Protocol: IDO Kynurenine Assay with Human IDO1/HEK293 Cells
# Human IDO1/HEK293 cells were seeded at 10,000 cells per 50 uL per well with RPMI/phenol red free media contains 10% FBS in a 384-well black wall clear bottom tissue culture plate (Matrix Technologies LLC) 125 nL of certain concentration of compound was then added to each well using ECHO liquid handling systems. The cells were incubated for 20 hours in 37° C. incubator with 5% CO2.
# The compound treatments were stopped by adding Trichloroacetic Acid (Sigma-Aldrich) to a final concentration at 0.2%. The cell plate was further incubated at 50° C. for 30 minute. The equal volume supernatant (20 uL) and 0.2% (w/v) Ehrlich reagent (4-dimethylaminobenzaldehyde, Sigma-Aldrich) in glacial acetic acid were mixed in a new clear bottom 384-well plate. This plate was then incubated at room temperature for 30 minute. The absorbance at 490 nm was measured on Envision plate reader.
# Compound IC50 values were calculated using the counts of 500 nM of a reference standard treatment as one hundred percent inhibition, and counts of no compound but DMSO treatment as zero percent inhibition.
# T1 sequence (P14902 whole entry): as above
row,pIC50,Structure (SMILES)
1,8.22,"Cc1ccc(NC(=O)Nc2cc(-c3ccccc3-c3nnn[nH]3)ccc2N(CC(C)C)[C@H]2CC[C@@H](C(F)(F)F)CC2)cc1 [Example 305, 1-(4-(isobutyl(4-(trifluoromethyl)cyclohexyl)amino)-2′-(1H-tetrazol-5-yl)-[1,1′-biphenyl]-3-yl)-3-(p-tolyl) urea]"
2,7.40,"Cc1ccc(NC(=O)Nc2cc(-c3cc(F)ccc3C(=O)O)ccc2N(CC(C)C)C2CCC(C(F)(F)F)CC2)cc1 (centres unmarked) [Example 306, 5-fluoro-4′-(isobutyl(4-(trifluoromethyl)cyclohexyl)amino)-3′-(3-(p-tolyl)ureido)-[1,1′-biphenyl]-2-carboxylic acid]"
3,7.40,"Cc1ccc(NC(=O)Nc2cc(-c3ccccc3C(=O)O)ccc2N(CC(C)C)C2CCC(C(F)(F)F)CC2)cc1 (centres unmarked) [Example 307, 4′-(isobutyl(4-(trifluoromethyl)cyclohexyl)amino)-3′-(3-(p-tolyl)ureido)-[1,1′-biphenyl]-2-carboxylic acid]"
